# Tested on: Eimeria
# Test: In vitro ability to disrupt infectious activity of Eimeria sporozoites expressed as potency relative to frenolicin (B=1)
# Format: functional
row,Structure (SMILES),Relative potency
1,O=C1CC2CCC3=C(C(=O)c4cccc(O)c4C3=O)C2O1 (stereo not drawn),0.033
2,O=C1C[C@H]2CCC3=C(C(=O)c4ccccc4C3=O)[C@H]2O1,0.167
3,CC(=O)OC1CCCC2=C1C(=O)c1ccccc1C2=O (stereo not drawn),0.001
